The values below come from patent US10329304B2, “Compounds and methods for inhibition of hedgehog signaling and phosphodiesterase” (Vanderbilt University, priority 2014, dated 2019).

By EC50 is commonly meant the concentration at which the effect is half-maximal.

“Also recorded” adds a separate entry of the source. Like-named read-outs stand apart in the source and are kept apart here.

Data set [1] has as its system Hedgehog signaling (TM3-Gli-Luc). The data set is described as follows: TM3-Gli-Luc luciferase reporter assay stimulated with 20 nM SAG. The format is cell-based. The conditions noted are these: for EC50: read-out: TM3-Gli-Luc EC50. Summed up: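 Luciferase read-out divided by CellTiter-Glo viability, minus DMSO/no-SAG baseline, expressed relative to 20 nM SAG alone. Cells exposed to compound with SAG for 48 h at 37 °C in 2.5% FBS DMEM/F12 on gelatin. EC50 ±SEM from at least two separate-day runs.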
On the technique in general: A reporter such as luciferase makes a cellular process visible.

The next data set concerns TM3-Gli-Luc cells. The data set is described as follows: TM3-Gli-Luc cell viability (Cell Titer Glo, LD50). Type of data set: cell-based. The procedure:
On the day of cell plating, 96-well plates were coated with 50 μL/well of sterile 0.1% gelatin for 5 minutes then aspirated and replaced with 50 μL/well of TM3 Culture Medium. TM3-Gli-Luc cells were seeded at a density of 5,000 cells/well in TM3 Culture Medium and incubated for 24 hours. A master mix of 20 nM SAG in TM3Luc Medium was prepared, and small molecule solutions were prepared by adding the desired amount of compound from 10 mM DMSO stock to TM3Luc Medium containing 20 nM SAG. Negative control was prepared by adding an equi-volume amount of DMSO as compared to small molecule treated conditions to TM3Luc Medium not containing SAG. Cell plating medium was aspirated and replaced with 100 μL/well of prepared small molecule-containing media, and plates were incubated for 48 hours before proceeding to luciferase activity and cell viability reading.
TM3Luc Medium from compound treated plates was aspirated and replaced with 82 μL/well of Glo Lysis Buffer (Promega, Madison, Wis., USA), and plates were shaken at 300 rpm and room temperature for 12 minutes. Lysate was split between two white 96-well plates, 45 μL/well and 25 μL/well for luciferase reading and cell viability respectively. For luciferase activity monitoring, 45 μL/well of Steady Glo (Promega, Madison, Wis., USA) was added to 45 μL/well of cell lysate, incubated at room temperature for 5 minutes, then luminescence was measured on a Turner Biosystems Modulus Microplate Reader (Sunnyvale, Calif., USA) with an integration time of 0.5 seconds. For cell viability measurement, 25 μL/well of Cell Titer Glo (Promega, Madison, Wis., USA) (prepared by 1:10 dilution with Glo Lysis Buffer) was added to 25 μL/well of cell lysate, incubated at room temperature for 5 minutes, then luminescence was measured as above.
All raw data was divided by the average of positive control cell titer data to arrive at percent cells remaining compared to positive control. […] At least two independent assays tested on separate days were averaged to provide LD50±standard error of the mean.
Background: Cellular ATP, detected with luciferase, serves as a proxy for viable cell number.

A further data set deals with Gli1 transcription. The data set is described as follows: Sufu−/− mouse embryonic fibroblasts qRT-PCR. The format is cell-based. From the text: (§1) In light of EGM1's ability to halt Hh transcriptional activity at a node downstream of the negative regulator Sufu, and thus also downstream of Smo, we sought to confirm mode of action retention with our most promising analogs. Therefore, we employed Sufu−/− mouse embryonic fibroblasts (MEF) that display constitutively active transcription of Hh target genes Gli1 and Ptch1 and monitored the ability of our optimized analogs to repress signaling via quantitative reverse transcription-PCR (qRT-PCR). […] We then evaluated improved analogs from multiple structural classes including those from Table 1 with cyclohexylthiophene cores as well as from Table 13 with structurally distinct core modifications.
(§2) Sufu^−/− cells were seeded into 12-well plates at a density of 100,000 cells/well in D10 FBS and incubated for 24 hours. Small molecule solutions were prepared by adding the desired amount of compound from 10 mM DMSO stock to D0.5 FBS. Negative control was prepared by adding an equi-volume amount of DMSO to D0.5 FBS as compared to small molecule treated conditions. Cell plating medium was aspirated and replaced with 1 mL of prepared small molecule-containing media, and plates were incubated for 24 hours before proceeding to RNA isolation.
(§3) Cells were washed 1× with 1× phosphate-buffered saline (PBS) then RNA was isolated using the Qiagen RNeasy Mini Kit (Qiagen, Germantown, Md., USA) according to the manufacturer's protocol, eluting RNA from the spin column with 30 μL of RNase-free water. RNA was placed on ice and immediately subjected to reverse transcription. Remaining RNA was stored at −80° C.
(§4) Reverse transcription polymerase chain reaction (RT-PCR) was performed with the Applied Biosystems High Capacity cDNA Reverse Transcription Kit (ThermoFisher Scientific, Waltham, Mass., USA) using an Eppendorf MasterCycler. Each 20 μL reaction contained 0.5 μg of total RNA, 2 μL of 10×RT Buffer, 0.8 μL of 25×dNTP Mix (100 mM), 2 μL of 10×RT Random Primers, 1 μL of MultiScribe® Reverse Transcriptase (50 U/μL), 1 μL of Recombinant RNasin® Ribonuclease Inhibitor (40 U/μL) (Promega, Madison, Wis., USA), and nuclease-free water. Reverse transcription was performed with the following program: 25° C. for 10 minutes, 37° C. for 120 minutes, and 85° C. for 5 minutes. The cDNA was subjected to quantitative real-time PCR (Q-PCR) or stored at −20° C.
(§5) Quantitative real-time PCR was performed on an Applied Biosystems 7900 HT Fast Real Time PCR System in 384-well format. Each cDNA sample was assayed in triplicate with both probe of interest and control probe. Master mixes for each probe were prepared corresponding to 10 μL of Applied Biosystems TaqMan Universal PCR Master Mix (ThermoFisher Scientific, Waltham, Mass., USA), 1 μL of primer, and nuclease-free water corresponding to a volume providing 20 μL reactions when loading an average of 50 ng of cDNA. Quantitative real-time PCR was run with the following thermal cycling protocol: 50° C. for 2 min., 95° C. for 10 min., and 40 cycles of 95° C. for 15 seconds, 60° C. for 1 min., then fluorescence reading. The following FAM probes were purchased from Life Technologies (Carlsbad, Calif., USA): mouse GAPDH, Mm99999915_g1; mouse Gli1, Mm00494646_g1; mouse Ptch1, Mm01306905_m1.
(§6) Quantitative real-time PCR data for Hh signaling inhibition was quantitated using the ΔΔCt method. Control probe values were subtracted from probe of interest values to arrive at the ΔCt value. The ΔCt value was transformed by 2-^ΔCt to arrive at the ΔΔCt value. All ΔΔCt values were divided by the average negative control ΔΔCt value to provide percent Hh signaling activity. Percent inhibition values were derived by calculating the inverse of percent activity. Data is reported as mean±standard error of the mean (SEM), representing at least two biological replicates, each quantitated in triplicate.
For orientation: Quantitative PCR measures a nucleic acid by following its amplification.

The subject of a further data set is Ptch1 transcription. The data set is described as follows: Sufu−/− mouse embryonic fibroblasts qRT-PCR. Type of data set: cell-based.
Source text: as §1, §2, §3, §4, §5, §6

Data set [2] in a line: Lipophilic efficiency (LipE = pEC50 − cLogP) and cLogP. An outline of the steps:
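pEC50 came from TM3-Gli-Luc Gli-responsive luciferase reporter cells stimulated with 20 nM SAG, with non-specific cytotoxicity monitored in parallel. LipE was calculated by subtracting cLogP from pEC50.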

For data set [3], the system named is Hedgehog signaling (Gli-Luc reporter). The following applies: read-out: reported EC50 in the Shh-LIGHT2 reporter line; cited from earlier work.
For another data set, the system named is Hh signaling. The data set is described as follows: Hh signaling inhibition (assay not named, data not shown). Type of data set: cell-based.
Data set [4] relates to Hedgehog signaling (Gli-Luc reporter). In words: Hh Gli-Luciferase reporter assay in Shh-Light2 cells. Type of data set: cell-based, mouse. The following applies: Shh-conditioned media. An outline of the steps:
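Steady-Glo luminescence, corrected for cell titer by CellTiter-Glo, was measured after overnight exposure to compound concentrations. Signaling in Gli-Luc Shh-Light2 cells came either from Shh-conditioned medium, 3 μM purmorphamine or 20 nM SAG, or from transfected Gli-2, PDE4D3 or DN-PDE4D3 constructs.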

In data set [5] the test system is total cellular cAMP levels. The data set is described as follows: cAMP assay (total cellular cAMP, EIA chemiluminescence). The format is cell-based. The procedure: Shh-Light2 cells were seeded in a 96-well plate and incubated overnight. Varying concentrations of Rolipram or Eggmanone (0.013 uM-30 uM) or DMSO only were added to the cells in the absence of serum and incubated 30 minutes, at which time forskolin was added for a final concentration of 1 uM. After an additional 15 minutes, cells were washed with PBS and assayed for cAMP levels using EIA based chemiluminescence kit according to the manufacturer's protocol (Cell Signaling Technologies, Danvers, Mass.).

The test system of the next data set is mouse aorta. In words: Myography of cannulated mouse aorta. From the text:
For myography, to test the vascular tone for presense of downstream or off target effects, mouse aorta was mounted and cannulated on a closed system. A physiological buffer (with respect to pH, CO2, and temperature) was circulated through the vessel.

In another data set the test system is PKA activation. The data set is described as follows: Immunostaining of autophosphorylated PKA catalytic subunit in NIH3T3 cells. Type of data set: cell-based. The following applies: SAG-stimulated NIH3T3 cells, Egm 5 μM, Rolipram 10 μM. The procedure: NIH3T3 cells were plated on Poly-D-Lysine-coated glass coverslips and were cultured at 37° C., 5% CO2 in DMEM medium containing 10% fetal bovine serum until reaching 75% confluency. For one set of experiments, cells were then transfected with VSV-tagged PDE4D3 plasmid (gift from Miles Houslay, University of Glasgow, Scotland, UK) using Fugene6 transfection reagent (Roche, Indianapolis, Ind.) per manufacturer's protocol. Afterward, cell medium was replaced with DMEM/0.5% FBS containing either 5 μM eggmanone or DMSO and incubated overnight at 37° C., 5% CO2. Cells were fixed in 4% PFA at room temperature for 10 minutes prior to permeabilization, blocking, and staining with primary antibodies against Arl13b (gift of Tamary Caspary, Emory University, Atlanta, Ga.) and VSV (AbCam, Cambridge, Mass.). Fluorescent immunocytochemistry was performed using species-specific, secondary antibodies (Jackson Immunoresearch, West Grove, Pa.). For additional immunocytochemistry experiment, cells were treated with 20 nM SAG in the presence or absence of 5 uM Eggmanone. After overnight incubation, cells were washed with PBS, fixed for 10 minutes in 4% PFA, permeabilized 20 minutes at −20C with cold methanol, blocked with PBS/1% BSA, and incubated with primary antibodies to phospho-PKA catalytic domain Thr197 (Cell Signaling, Danvers, Mass.) and then to Arl13b. An additional overnight blocking step using unconjugated rabbit IgG was required between primary antibody incubations since both antibodies were produced in rabbit. Fluorescent conjugated secondary antibodies were used for visualization. Data analysis was performed in part through the use of the VUMC Cell Imaging Shared Resource.
Using ImageJ software (National Institutes of Health, developed by W. Rasband), a region of interest was created using the magic wand tool on Arl13b channel and transposed to the Gli2 channel, and integrated density was measured and reported as arbitrary units (a.u.). For phospho-PKA, using ImageJ, a line selection tool was used to select a line projected through the length of the primary cilia and an equal length beyond. The intensity values were potted and the cumulative florescence (area under the curve) was calculated for three cilia, blindly, for each treatment. These values for cilia and pericilia domain were analyzed by a two tailed students t-test. For correlation analysis, correlation coefficient for intensity of gamma-tubulin and phosphor-PKA were calculated and compared among treatments with students t-test.

The test system of a further data set is cAMP. In words: FRET-based cAMP sensors in NIH3T3 cells. The conditions noted are these: 2 μM. Type of data set: cell-based. From the text:
To visualize changes in cAMP concentrations in individual cells and cellular regions, we utilized two distinct FRET (fluorescence resonance energy transfer)-based cAMP sensors: the Epac-FRET sensor (mTurquoiseΔ-Epac(CD, ΔDEP)-cp173 Venus-Venus)^35, which detects cytosolic cAMP concentration and the PKA-based cAMP sensor (PKAC-YFP and PKARII-CFP combination), which has been used to document changes in local cAMP levels in the centrosome and basal body.

[6] abbreviates: Sufu−/− MEF, qRT-PCR, compounds tested at 10 μM, normalized to DMSO, mean ± SEM.

Take `CN(C)c1ccccc1CN1CCCN(Cc2ccccc2N(C)C)C1c1ccncc1` [GANT-61, reference compound]: the “Hh inhibitory activity / potency in words” value in data set [1] (20 nM SAG) is recorded as “slightly higher than the reported”. In addition, the EC50 is 9.27 ± 1.8 µM in data set [1] (20 nM SAG, mean ± standard error of the mean); 9.27 ± 1.8 µM in data set [1] (TM3-Gli-Luc reporter line stimulated with 20 nM SAG, mean ± SEM, Table 14); approximately 5 µM in data set [3]. Moreover, the “TM3-Gli-Luc LD50” value in the data set with TM3-Gli-Luc cells is more than 50 µM. In addition, in the data set with Gli1 transcription (10 μM), the “inhibition of Gli1 transcription” value is recorded as “approximately 50%”. Further, in the data set with Gli1 transcription (setting [6]), the “Sufu−/− % Inh. Gil1 mRNA” value was found to be 43.8 ± 5.2%. Besides, the “inhibition of Ptch1 transcription” value with Ptch1 transcription (10 μM) was “approximately 50%”. Also, the “Sufu−/− % Inh. Ptch1 mRNA” value in the data set on Ptch1 transcription (setting [6]) amounted to 52.8 ± 2.7%. Also, the LipE in data set [2] (Calculated as pEC50 - cLogP, Molinspiration Cheminformatics) is on record as 1.34; in data set [2] (pEC50 - cLogP, Table 14), 1.34.
Turning to `O=C(Nc1c(Cl)cncc1Cl)c1ccc(OC(F)F)c(OCC2CC2)c1` [Roflumilast], the “Potency for Hh signaling inhibition” value in the data set with Hh signaling was “micromolar potency”.
As to `COc1ccc(C2CNC(=O)C2)cc1OC1CCCC1` (centres unmarked) [rolipram, reference compound], the “Sonic hedgehog (SHH)-responsive Gli-luciferase reporter activity” value is reported as “did not bring the reporter activity down to the baseline even at very high concentrations” in data set [4] and “incomplete even at high concentrations” in data set [4] (listed as Rolipram). For the same compound, the “Total cellular cAMP levels” value is listed as “substantially; also recorded: elicited robust cAMP accumulation” in data set [5] and “increased total cellular cAMP levels” in data set [5] (listed as Rolipram). Moreover, the “Vessel diameter after pre-constriction” value with mouse aorta was “caused the vessel to dilate”. Also, the “PKA activation (phospho-PKA-C staining), spatial distribution” value with PKA activation is given as “more diffuse increase in cytoplasmic phospho-PKA levels; also recorded: more diffuse increase in phospho-PKA staining”; with PKA activation (listed as Rolipram), “increases PKA activation more diffusely”. Moreover, the “Cytosolic FRET signal (Epac-FRET sensor)” value in the data set on cAMP was “significantly increased the FRET signal throughout the cell”.
